{
  "source": "patent US4598146A",
  "about": "“Compound, arugomycin” (Kirin Beer Kabushiki Kaisha, priority 1983, dated 1986)",
  "test_system": "mice",
  "conditions": "mouse, in vivo, ip",
  "data": [
    {"smiles": "COC(=O)C1c2cc3c(c(O)c2C(OC2CC(OC)C(OC4CC(O)C(OC5CC(OC)C(OC6CC(OC)C(OC(=O)C=CC(=O)O)C(C)O6)C(C)O5)C(C)O4)C(C)O2)CC1(C)O)C(=O)c1c(O)cc2c(c1C3=O)OC1OC2(C)C(OC2CC(O)C(OC3CC(C)([N+](=O)[O-])C(OC4CC(OC)C(O)C(C)O4)C(C)O3)C(C)O2)C(N(C)C)C1O", "note": "(stereo not shown) [Arugomycin]", "values": [
      {"measurement": "LD50", "value": 1.75, "unit": "mg/kg"}
    ]}
  ]
}
